This is an account of results in patent US5817692A, “Endoperoxides useful as antiparasitic agents” (priority 1996, dated 1998).

Where two headings read alike, the source gives them in different places.

One experiment relates to Plasmodium falciparum. In words: antimalarial activity, tritiated-hypoxanthine incorporation assay in human red blood cells. It counts as cell-based. The following applies: Erythrocyte, read-out: IC50 (inhibition of 50% of the replication of Plasmodium falciparum). How it is done:
(§1) The protozoan Plasmodium falciparum is a causative agent of malaria, the single most critical infectious disease of mankind. The antimalarial activity of the endoperoxides was determined according to the method of Desjardins et al. (16) as modified by Milhous et al. (17). Briefly, the antimalarial activity of the endoperoxides was tested in a tritiated-hypoxanthine incorporation assay by determining the concentration of the test compound needed to inhibit 50% of the replication of Plasmodium falciparum (IC50) in human red blood cells.
It is particularly noted that JHU 2886 has an excellent therapeutic index (ratio of activity to toxicity). At 1 μM, JHU 2886 has a therapeutic index of 70/0, whereas at the same concentration artimisinin has a therapeutic index of 76/10 (7.6), and atovaquone has a therapeutic index of only 95/17 (5.6). […] The first two compounds are known while the following five are being disclosed for the first time. […] Compounds of this formula wherein Ar is p-FCH2 Ph or p-HOCH2 Ph and X is CH2 are also expected to be particularly useful. […]

The test system of the next experiment is P. falciparum NF54. The experiment in a line: antimalarial activity, P. falciparum NF54 parasites in vitro. The class given is cell-based. The following applies: Plasmodium falciparum. As to the method: as §1
Tables 4 and 5 show the structures and antimalarial activities of unsaturated and saturated bicyclic [2.2.2] endoperoxides of the invention. Compounds of this formula wherein R and R' are identical are particularly preferred. It is expected that compounds wherein R and R' are selected from the groups [drawing 33] will be especially useful. […]

[1] abbreviates: P. falciparum NF54 parasites in vitro, read-out: Antimalarial Activity IC50.
The mark [2] stands for this setting: NF54, read-out: Antimalarial Activity IC50.

What is called IC50 is the point on the concentration scale where inhibition reaches its midpoint. With `C1=CC2(c3ccccc3)CCCC1(c1ccccc1)OO2`, the IC50 with Plasmodium falciparum stood at 150 nM.

On to `CC1(C)CC2(c3ccccc3)CCC(c3ccccc3)(C1)OO2` [Ar = Ph, X = C(CH3)2], for which the IC50 in the experiment with Plasmodium falciparum is over 1000 nM.

For the compound `c1ccc(C23CCCC(c4ccccc4)(CC2)OO3)cc1` [Ar = Ph, X = CH2], the IC50 in the experiment with Plasmodium falciparum and in the experiment on P. falciparum NF54 (setting [1]) was 89 nM in each case.

Take `O=S1(=O)CC2(c3ccccc3)CCC(c3ccccc3)(C1)OO2` [Ar = Ph, X = SO2]: in the experiment with Plasmodium falciparum, the IC50 was over 1000 nM.

Turning to `c1ccc(C23CCC(c4ccccc4)(CC4(CCCCC4)C2)OO3)cc1` [Ar = Ph, X = drawing 40], the IC50 in the experiment with Plasmodium falciparum is over 1000 nM.

On to `Fc1ccc(C23CCCC(c4ccc(F)cc4)(CC2)OO3)cc1` [Ar = p-FPh, X = CH2], for which the IC50 in the experiment on Plasmodium falciparum came out at 38 nM.

`COc1ccc(C23CCCC(c4ccc(OC)cc4)(CC2)OO3)cc1` [Ar = p-MeOPh, X = CH2]: the IC50 in the experiment with Plasmodium falciparum worked out at 62 nM.

`Fc1ccc(C23C=CC(c4ccc(F)cc4)(CC2)OO3)cc1` [R = F, R' = F]: the IC50 with P. falciparum NF54 (setting [1]) was found to be 70 nM.

Take `Fc1ccc(C23C=CC(c4ccccc4)(CC2)OO3)cc1` (centres unmarked) [R = H, R' = F]: the IC50 with P. falciparum NF54 (setting [1]) was determined as 71 nM.

For `Cc1ccc(C23C=CC(c4ccc(C)cc4)(CC2)OO3)cc1` [R = Me, R' = Me], in the experiment on P. falciparum NF54 (setting [1]), the IC50 is 140 nM.

Regarding `FC(F)(F)c1ccc(C23CCC(c4ccc(C(F)(F)F)cc4)(CC2)OO3)cc1` [Table 5, R = CF3], the IC50 with P. falciparum NF54 (setting [1]) is 82 nM.

As for `Fc1ccc(C23CCC(c4ccc(F)cc4)(CC2)OO3)cc1` [Table 5, R = F], the IC50 in the experiment with P. falciparum NF54 (setting [1]) worked out at 63 nM.

As to `c1ccc(C23CCC(c4ccccc4)(CC2)OO3)cc1` [Table 5, R = H], the IC50 with P. falciparum NF54 (setting [1]) worked out at 210 nM.

Take `OCc1ccc(C23CCCC(c4ccccc4)(CC2)OO3)cc1` (centres unmarked) [Table 6, R = CH2 OH]: the IC50 in the experiment on P. falciparum NF54 (setting [1]) was 81 nM.

As to `CC(C)(C)[Si](C)(C)OCc1ccc(C23CCCC(c4ccccc4)(CC2)OO3)cc1` (centres unmarked) [Table 6, R = CH2 OSiMe2 Bu-t], the IC50 in the experiment with P. falciparum NF54 (setting [2]) worked out at 99 nM.

Turning to `Fc1ccc(C23CCCC(c4ccccc4)(CC2)OO3)cc1` (centres unmarked) [Table 6, R = F], the IC50 in the experiment on P. falciparum NF54 (setting [1]) is 42 nM.

Regarding `Oc1ccc(C23CCCC(c4ccccc4)(CC2)OO3)cc1` (centres unmarked) [Table 6, R = OH], the IC50 with P. falciparum NF54 (setting [1]) was over 2500 nM.

Take `CC(C)(C)[Si](C)(C)Oc1ccc(C23CCCC(c4ccccc4)(CC2)OO3)cc1` (centres unmarked) [Table 6, R = OSiMe2 Bu-t]: the IC50 in the experiment with P. falciparum NF54 (setting [2]) was determined as 290 nM.

`C1=CC2(c3ccccc3)CC1(c1ccccc1)OO2` [n = 1]: the IC50 with Plasmodium falciparum turned out to be 650 nM.

For `C1=CC2(c3ccccc3)CCC1(c1ccccc1)OO2` [n = 2], the IC50 with Plasmodium falciparum was determined as 150 nM; in the experiment on P. falciparum NF54 (setting [1]), 180 nM.

As to `C1=CC2(c3ccccc3)CCCCC1(c1ccccc1)OO2` [n = 4], the IC50 in the experiment on Plasmodium falciparum is 410 nM.
